Each block holds one compound with its values, some of them ahead of it.
How the values were obtained:
Zika virus [1] = assay: Antiviral activity against Zika virus infected in African green monkey Vero cells assessed as reduction in viral replication incubated for 24 hrs; type: functional, organism-based
dengue virus type 2 [2] = assay: Antiviral activity against DENV-2 RNA-dependent RNA polymerase infected in human Huh-7 cells assessed as reduction in viral replication by RT-PCR analysis; type: functional, organism-based
Nonstructural protein 5 [3] = target: T1, Nonstructural protein 5 (Dengue virus, UniProt V5TFZ2); assay: Inhibition of full length His-tagged DENV-2 NS5 incubated for 1 hr; design: species or system dengue virus type 2
Nonstructural protein 5 [4] = target: T1, Nonstructural protein 5; assay: Binding affinity to full length His-tagged DENV-2 NS5 assessed as dissociation constant; design: species or system dengue virus type 2
[5] = Binding affinity to DENV RNA-dependent RNA polymerase assessed as dissociation constant; design: species or system Dengue virus
[6] = Cytotoxicity against African green monkey Vero cells; type: toxicity, cell-based; conditions: chlorocebus sabaeus
Dengue virus [7] = assay: Antiviral activity against DENV NS5/RNA-dependent RNA polymerase; type: functional, organism-based
[8] = Cytotoxicity against hamster BHK-21 cells; type: toxicity, cell-based, Mesocricetus auratus
[9] = Inhibition of DENV RNA-dependent RNA polymerase in hamster BHK-21 cells; type: cell-based, Dengue virus
dengue virus type 1 = assay: Antiviral activity against DENV-1 RNA-dependent RNA polymerase infected in African green monkey Vero cells assessed as reduction in viral replication incubated for 2 days by qRT-PCR analysis; type: functional, organism-based; conditions: 48 h
dengue virus type 4 [10] = assay: Antiviral activity against DENV-4 RNA-dependent RNA polymerase infected in African green monkey Vero cells assessed as reduction in viral replication incubated for 2 days by qRT-PCR analysis; type: functional, organism-based; conditions: 48 h
dengue virus type 3 = assay: Antiviral activity against DENV-3 RNA-dependent RNA polymerase infected in African green monkey Vero cells assessed as reduction in viral replication incubated for 2 days by qRT-PCR analysis; type: functional, organism-based; conditions: 48 h
dengue virus type 2 [11] = assay: Antiviral activity against DENV-2 RNA-dependent RNA polymerase infected in African green monkey Vero cells assessed as reduction in viral replication incubated for 2 days by qRT-PCR analysis; type: functional, organism-based; conditions: 48 h
Nonstructural protein 5 [12] = target: T1, Nonstructural protein 5; assay: Inhibition of DENV-4 NS5; design: species or system dengue virus type 4
[13] = Inhibition of DENV-3 RNA-dependent RNA polymerase; design: species or system dengue virus type 3
[14] = Binding affinity to DENV-3 RNA-dependent RNA polymerase assessed as dissociation constant incubated for 40 sec by surface plasmon resonance analysis; design: species or system dengue virus type 3
dengue virus type 4 [15] = assay: Binding affinity to DENV-4 RNA-dependent RNA polymerase assessed as change in enthalpy by ITC analysis
[16] = target: Nonstructural protein 5 (Dengue virus) (UniProt V5TFZ2); assay: Binding affinity to DENV-3 NS5 assessed as gibbs free energy change; conditions: dengue virus type 3
[17] = Inhibition of DENV RNA-dependent RNA polymerase; design: species or system dengue virus type 1
NS5 = NS5 (Zika virus, UniProt A0A143MHK7); assay: Inhibition of Zika virus RNA-dependent RNA polymerase activity
Dengue virus [18] = assay: Inhibition of DENV RNA-dependent RNA polymerase relative to control; conditions: concentration not given here
[19] = Inhibition of DENV RNA-dependent RNA polymerase activity; design: species or system Dengue virus
NS5 (Zika virus) = NS5 (Zika virus) (UniProt A0A143MHK7); assay: Inhibition of Zika virus RNA-dependent RNA polymerase relative to control; conditions: concentration not given here
Nonstructural protein 5 [20] = target: T1, Nonstructural protein 5; assay: Inhibition of DENV NS5/RNA-dependent RNA polymerase
[21] = Selectivity index, ratio of CC50 for cytotoxicity against African green monkey Vero cells to EC50 for antiviral activity against Zika virus RNA-dependent RNA polymerase infected in African green monkey Vero cells; type: toxicity, cell-based; conditions: read-out: Ratio CC50/EC50
Zika virus [22] = assay: Antiviral activity against Zika virus RNA-dependent RNA polymerase infected in African green monkey Vero cells; type: functional, organism-based
[23] = Cytotoxicity against African green monkey Vero cells incubated for 4 hrs by Cell-titer glo assay; type: toxicity, cell-based; conditions: chlorocebus sabaeus
Zika virus [24] = assay: Antiviral activity against Zika virus NS5/RNA-dependent RNA polymerase; type: functional, organism-based

Chain of NS5 (A0A143MHK7 whole entry): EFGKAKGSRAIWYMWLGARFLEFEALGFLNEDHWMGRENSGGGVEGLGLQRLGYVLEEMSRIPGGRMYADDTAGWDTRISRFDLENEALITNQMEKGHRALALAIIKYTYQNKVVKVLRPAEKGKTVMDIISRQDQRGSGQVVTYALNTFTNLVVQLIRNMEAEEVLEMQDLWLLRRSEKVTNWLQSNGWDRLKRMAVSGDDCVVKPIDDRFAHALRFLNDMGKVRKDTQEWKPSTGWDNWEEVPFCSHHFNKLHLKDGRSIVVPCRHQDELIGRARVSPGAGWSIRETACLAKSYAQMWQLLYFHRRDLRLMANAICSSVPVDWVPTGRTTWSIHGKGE
Chain of NS5 (Zika virus) (A0A143MHK7 as listed by the source): as the sequence (A0A143MHK7 whole entry) above

SMILES: CCCCC#CC#CC#CCCCCCCCC(=O)O
- CC50 [6]: 30000 nM
- IC50 (Dengue virus [7]): 2700 nM

SMILES: C#Cc1c(C(N)=O)ncn1[C@@H]1O[C@H](CO)[C@@H](O)[C@H]1O
- CC50 [8]: 1240 nM
- IC50 [9]: 270 nM

SMILES: C[C@@]1(O)[C@H](O)[C@@H](CO)O[C@H]1n1cc(F)c2c(N)ncnc21
- EC50 (dengue virus type 1): 960 nM
- EC50 (dengue virus type 4 [10]): 870 nM
- EC50 (dengue virus type 3): 850 nM
- EC50 (dengue virus type 2 [11]): 460 nM

SMILES: COc1ccc(CC(=O)O)cc1-c1ccsc1
- IC50 (Nonstructural protein 5 [12]): 210000 nM
- IC50 [13]: 205 nM
- Kd [14]: 67000 nM
- deltaH (dengue virus type 4 [15]): -7.7 kcal/mol

SMILES: O=C(O)/C=C/C#CCCCCCCCC(=O)O
- CC50 [6]: > 420000 nM
- IC50 (Dengue virus [7]): 2500 nM

SMILES: CCCC/C=C/C#CCCCCCCCC(=O)O
- CC50 [6]: 30000 nM
- IC50 (Dengue virus [7]): 2700 nM

SMILES: C[C@@]1(O)[C@H](O)[C@@H](COP(=O)(O)OP(=O)(O)OP(=O)(O)O)O[C@H]1n1cnc2c(N)ncnc21
- IC50 (NS5): 5260 nM

SMILES: COc1ccc(CC(=O)O)cc1-c1cccs1
- IC50 (Nonstructural protein 5 [12]): 140000 nM
- IC50 [13]: 144 nM
- Kd [14]: 29000 nM
- deltaH (dengue virus type 4 [15]): -5.96 kcal/mol

SMILES: C[C@@]1(F)[C@H](O)[C@@H](COP(=O)(O)OP(=O)(O)OP(=O)(O)O)O[C@H]1n1ccc(N)nc1=O [PSI-6130-TP]
- inhibition (Dengue virus [18]): 85%
- IC50 [19]: 1600 nM
- inhibition (NS5 (Zika virus)): 67.4%

SMILES: COc1cc(O)c2c(=O)cc(-c3ccc(O)cc3)oc2c1-c1cc(-c2cc(=O)c3c(O)cc(O)cc3o2)ccc1O [SOTETSUFLAVONE]
- IC50 (Nonstructural protein 5 [20]): 160 nM

SMILES: O[C@H]1[C@H]2c3cc4c(cc3CN3CCC(=C[C@@H]1O)[C@H]23)OCO4 [LYCORINE]
- EC50 (Zika virus [24]): 390 nM
- CC50 [6]: 21000 nM

Further lines, with some results ahead:

- EC50 (Zika virus [1]): 1600 nM
- EC50 (dengue virus type 2 [2]): 3700 nM
SMILES: O=C(N[C@@H](Cc1ccc(O)cc1)C(=O)O)c1cc(-c2ccccc2)c(=O)n2c1sc1ccc(C3CCCCCC3)cc12

- IC50 (Nonstructural protein 5 [3]): 2100 nM
- Kd (Nonstructural protein 5 [4]): 9100 nM
SMILES: O=C1N/C(=N\c2nnc(-c3ccccc3Cl)s2)S/C1=C\c1cccc(F)c1

- Kd [5]: 900 nM
SMILES: Cc1ccc(C2N(c3ccccc3)CC3=C(CC(C)(C)CC3=O)N2c2ccccc2)cc1 (centres undefined)

- deltaG [16]: -6.43 kcal/mol
SMILES: O=C1N=C(SCC(=O)N2CCN(c3ccc(F)cc3)CC2)N=C2CCN(Cc3ccccc3)C[C@H]12

- IC50 [17]: 91000 nM
SMILES: Nc1cc(C(F)(F)F)ccc1NC(=O)Nc1cccc(S(=O)(=O)Nc2ccc(C(=O)O)cc2)c1

- EC50 (Zika virus [1]): 800 nM
- EC50 (dengue virus type 2 [2]): 2900 nM
SMILES: O=C(N[C@@H](Cc1cccc(O)c1)C(=O)O)c1cc(-c2ccccc2)c(=O)n2c1sc1ccc(C3CCCCC3)cc12

- EC50 (Zika virus [22]): 94 nM
SMILES: O=C(NC(=S)Nc1ccc(N2CCN(C(=O)c3cccs3)CC2)cc1)c1sc2ccccc2c1Cl
- selectivity ratio [21]: 206
- CC50 at 4 h [23]: 19400 nM
